Experimental data reported in ChEMBL document CHEMBL1201862, “PubChem BioAssay data set” (2004).
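Dose response: 5 concentrations. Exposure: 48 h. Format: 96-well plates. Endpoint: linear interpolation; highest concentration if not reached. At the GI50, growth is halved.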 Calls of active or inactive are those of the source. No stated cut-off is given here; in the data, active = GI50 up to about 1.1 µM and inactive = higher.

How the values were obtained:
Test in all cases: NCI-60 cell line screen, 48 h
HCT-116 = system: HCT-116
K562 = system: K562
SN12C = system: SN12C
RPMI-8226 = system: RPMI-8226
MDA-MB-435 = system: MDA-MB-435
A549 = system: A549
TK-10 = system: TK-10
PC-3 = system: PC-3
786-0 = system: 786-0
ACHN = system: ACHN
Malme-3M = system: Malme-3M
HOP-62 = system: HOP-62
SK-MEL-5 = system: SK-MEL-5
U-251 = system: U-251
SF-539 = system: SF-539
MDA-N = system: MDA-N
SK-MEL-2 = system: SK-MEL-2
Hs-578T = system: Hs-578T
CCRF-CEM = system: CCRF-CEM
OVCAR-3 = system: OVCAR-3

C=CCN1C(=O)/C(=C/c2ccc(C)cc2)N=C1SC/C=C/C
GI50 (HCT-116): 18.8 µM (inactive)
GI50 (K562): 25.9 µM (inactive)
GI50 (SN12C): 28.1 µM (inactive)
GI50 (RPMI-8226): 14.5 µM (inactive)
GI50 (MDA-MB-435): 34.4 µM (inactive)
GI50 (A549): 21 µM (inactive)
GI50 (TK-10): > 100 µM (inactive)
GI50 (PC-3): 33 µM (inactive)
GI50 (786-0): 29.9 µM (inactive)
GI50 (ACHN): 40.2 µM (inactive)
GI50 (Malme-3M): 32.1 µM (inactive)
GI50 (HOP-62): > 100 µM (inactive)
GI50 (SK-MEL-5): 22.7 µM (inactive)
GI50 (U-251): 27.2 µM (inactive)
GI50 (SF-539): 77.3 µM (inactive)
GI50 (MDA-N): 22.8 µM (inactive)
GI50 (SK-MEL-2): 24.8 µM (inactive)
GI50 (Hs-578T): 21.8 µM (inactive)
GI50 (CCRF-CEM): 26.7 µM (inactive)
GI50 (OVCAR-3): 40.8 µM (inactive)

CN(C)CCNC(=O)Cn1ccc(=O)c2c([N+](=O)[O-])cccc21
GI50 (HCT-116): > 100 µM (inactive)
GI50 (K562): > 100 µM (inactive)
GI50 (SN12C): > 100 µM (inactive)
GI50 (RPMI-8226): > 100 µM (inactive)
GI50 (MDA-MB-435): > 100 µM (inactive)
GI50 (A549): > 100 µM (inactive)
GI50 (TK-10): > 100 µM (inactive)
GI50 (PC-3): > 100 µM (inactive)
GI50 (786-0): > 100 µM (inactive)
GI50 (ACHN): > 100 µM (inactive)
GI50 (Malme-3M): > 100 µM (inactive)
GI50 (HOP-62): > 100 µM (inactive)
GI50 (SK-MEL-5): > 100 µM (inactive)
GI50 (U-251): > 100 µM (inactive)
GI50 (SF-539): > 100 µM (inactive)
GI50 (MDA-N): > 100 µM (inactive)
GI50 (SK-MEL-2): > 100 µM (inactive)
GI50 (Hs-578T): > 100 µM (inactive)
GI50 (CCRF-CEM): > 100 µM (inactive)
GI50 (OVCAR-3): > 100 µM (inactive)

CN(NC(=O)CCCl)C1=NCCN1
GI50 (HCT-116): > 100 µM (inactive)
GI50 (K562): > 100 µM (inactive)
GI50 (SN12C): > 100 µM (inactive)
GI50 (RPMI-8226): > 100 µM (inactive)
GI50 (MDA-MB-435): > 100 µM (inactive)
GI50 (A549): > 100 µM (inactive)
GI50 (TK-10): > 100 µM (inactive)
GI50 (PC-3): > 100 µM (inactive)
GI50 (786-0): > 100 µM (inactive)
GI50 (ACHN): > 100 µM (inactive)
GI50 (Malme-3M): > 100 µM (inactive)
GI50 (HOP-62): > 100 µM (inactive)
GI50 (SK-MEL-5): > 100 µM (inactive)
GI50 (U-251): > 100 µM (inactive)
GI50 (SF-539): > 100 µM (inactive)
GI50 (MDA-N): > 100 µM (inactive)
GI50 (SK-MEL-2): > 100 µM (inactive)
GI50 (Hs-578T): > 100 µM (inactive)
GI50 (CCRF-CEM): > 100 µM (inactive)
GI50 (OVCAR-3): > 100 µM (inactive)

OCC1OC(n2cnc3c(Cl)nc(Nc4ccccc4)nc32)CC1O (stereo not given)
GI50 (HCT-116): > 100 µM (inactive)
GI50 (K562): 32.7 µM (inactive)
GI50 (SN12C): > 100 µM (inactive)
GI50 (RPMI-8226): > 100 µM (inactive)
GI50 (MDA-MB-435): 60.1 µM (inactive)
GI50 (A549): 17.7 µM (inactive)
GI50 (TK-10): > 100 µM (inactive)
GI50 (PC-3): > 100 µM (inactive)
GI50 (786-0): > 100 µM (inactive)
GI50 (ACHN): 17.3 µM (inactive)
GI50 (Malme-3M): 18.7 µM (inactive)
GI50 (HOP-62): > 100 µM (inactive)
GI50 (SK-MEL-5): > 100 µM (inactive)
GI50 (U-251): > 100 µM (inactive)
GI50 (SF-539): > 100 µM (inactive)
GI50 (MDA-N): 75.5 µM (inactive)
GI50 (SK-MEL-2): 45.7 µM (inactive)
GI50 (Hs-578T): 35.2 µM (inactive)
GI50 (CCRF-CEM): 26.1 µM (inactive)
GI50 (OVCAR-3): 75.5 µM (inactive)

OC1C2CCCCN2C[C@@H](O)[C@H]1O (stereo not given in full)
GI50 (HCT-116): > 100 µM (inactive)
GI50 (K562): > 100 µM (inactive)
GI50 (SN12C): > 100 µM (inactive)
GI50 (RPMI-8226): > 100 µM (inactive)
GI50 (MDA-MB-435): > 100 µM (inactive)
GI50 (A549): > 100 µM (inactive)
GI50 (TK-10): > 100 µM (inactive)
GI50 (PC-3): > 100 µM (inactive)
GI50 (786-0): > 100 µM (inactive)
GI50 (ACHN): > 100 µM (inactive)
GI50 (Malme-3M): > 100 µM (inactive)
GI50 (HOP-62): > 100 µM (inactive)
GI50 (SK-MEL-5): > 100 µM (inactive)
GI50 (U-251): > 100 µM (inactive)
GI50 (SF-539): > 100 µM (inactive)
GI50 (MDA-N): > 100 µM (inactive)
GI50 (SK-MEL-2): > 100 µM (inactive)
GI50 (Hs-578T): > 100 µM (inactive)
GI50 (CCRF-CEM): > 100 µM (inactive)
GI50 (OVCAR-3): > 100 µM (inactive)

c1ccc(C/C(=N\Nc2nc3ccccc3o2)c2ccccn2)cc1
GI50 (HCT-116): < 0.01 µM (active)
GI50 (K562): 0.027 µM (active)
GI50 (SN12C): 0.0569 µM (active)
GI50 (RPMI-8226): 0.0482 µM (active)
GI50 (MDA-MB-435): 0.638 µM (active)
GI50 (A549): 0.437 µM (active)
GI50 (TK-10): 0.0668 µM (active)
GI50 (PC-3): < 0.01 µM (active)
GI50 (786-0): < 0.0193 µM (active)
GI50 (ACHN): 0.0202 µM (active)
GI50 (Malme-3M): 0.0233 µM (active)
GI50 (HOP-62): 0.0354 µM (active)
GI50 (SK-MEL-5): 0.0769 µM (active)
GI50 (U-251): 0.198 µM (active)
GI50 (SF-539): 0.114 µM (active)
GI50 (MDA-N): 0.355 µM (active)
GI50 (SK-MEL-2): 0.929 µM (active)
GI50 (Hs-578T): 0.569 µM (active)
GI50 (CCRF-CEM): < 0.0122 µM (active)
GI50 (OVCAR-3): 0.0137 µM (active)

CCC1CCC2c3c([nH]c4ccc(C)cc34)C3C(=O)N(N(C)C)C(=O)C3C2C1 (stereo not given)
GI50 (HCT-116): 7.36 µM (inactive)
GI50 (K562): 2.62 µM (inactive)
GI50 (SN12C): 17.9 µM (inactive)
GI50 (RPMI-8226): 19 µM (inactive)
GI50 (MDA-MB-435): 1.37 µM (inactive)
GI50 (A549): 15.9 µM (inactive)
GI50 (TK-10): 32.4 µM (inactive)
GI50 (PC-3): 6.22 µM (inactive)
GI50 (786-0): 7.24 µM (inactive)
GI50 (ACHN): 91.2 µM (inactive)
GI50 (Malme-3M): 1.02 µM (active)
GI50 (HOP-62): > 27 µM (inactive)
GI50 (SK-MEL-5): 12.8 µM (inactive)
GI50 (U-251): 19.5 µM (inactive)
GI50 (SF-539): 18.2 µM (inactive)
GI50 (MDA-N): 1.09 µM (active)
GI50 (SK-MEL-2): 24.6 µM (inactive)
GI50 (Hs-578T): 4.91 µM (inactive)
GI50 (CCRF-CEM): 12.7 µM (inactive)
GI50 (OVCAR-3): 0.787 µM (active)
